The values that follow are results of earlier work, collected in patent US20040241049A1, “Elastomeric tools for the fabrication of elastomeric devices and uses thereof” (priority 2003, published 2004).

The test system of this data set is α1-acid glycoprotein, αAGP. The settings on record: displacement of quinaldine red from αAGP; stated as known.

Each structure is given as a SMILES string.

Consider `CN(C)CCCN1c2ccccc2Sc2ccc(Cl)cc21` [chloropromazine], for which the “inhibition of QR/αAGP binding (binder / non-binder)” value (“inhibition … (binder / non-binder)” for short) was “known inhibitors to QR/αAGP binding”.
Turning to `CC(C)Cc1ccc(C(C)C(=O)O)cc1` (stereo not drawn) [ibuprofen], the “inhibition … (binder / non-binder)” value was “non-binder”.
Turning to `O=C(O)c1cc(I)cc(I)c1I` [tri-idiobenzoic acid], the “inhibition … (binder / non-binder)” value is on record as “known inhibitors to QR/αAGP binding”.
